Like-named read-outs stand apart in the source and are kept apart here.
Tested on: RS4; 11 with G101V mutation
Experiment: In vitro anti-proliferation assay (ATPlite luminescence) in BCL-2-dependent ALL cell line RS4;11 with G101V mutation
Assay type: cell-based
Details: read-out: RS411-G101V IC50
How it was run: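 RS4;11 G101V cells at about 1×10^4 per well were exposed to a range of compound concentrations for about 72 h in medium with 10% FBS. Cellular ATP was measured by ATPlite luminescence after lysis, and IC50 was derived from the dose-response.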

[1] = cellular anti-proliferative IC50, about 72 hours, medium with 10% FBS, ATPlite

SMILES | IC50 [1] | IC50 (Homo sapiens, RS4-11, 72 h)
CC(C)Oc1ccccc1[C@H]1CN(Cc2ccc(F)c(F)c2)CCN1C1CC2(CCN(c3ccc(C(=O)NS(=O)(=O)c4ccc(NCC5CCOCC5)c([N+](=O)[O-])c4)c(N4c5cc6cc[nH]c6nc5O[C@H]5COCC[C@@H]54)c3)CC2)C1 [Example 185, 4-{2-[(2S)-4-[(3,4-difluorophenyl)methyl]-2-(2-isopropoxyphenyl)piperazin-1-yl]-7-azaspiro[3.5]nonan-7-yl}-2-[(3R,8S)-2,5-dioxa-9,15,17-triazatetracyclo[8.7.0.0^{3,8}.0^{12,16}]heptadeca-1(10),11,13,16-tetraen-9-yl]-N-{3-nitro-4-[(oxan-4-ylmethyl)amino]benzenesulfonyl}benzamide] | 112 nM | –
CC(C)Oc1ccccc1[C@@H]1CN(Cc2ccc(F)c(F)c2)CCN1C1CC2(CCN(c3ccc(C(=O)NS(=O)(=O)c4ccc(NCC5CCOCC5)c([N+](=O)[O-])c4)c(N4c5cc6cc[nH]c6nc5O[C@H]5COCC[C@@H]54)c3)CC2)C1 [Example 186, 4-{2-[(2R)-4-[(3,4-difluorophenyl)methyl]-2-(2-isopropoxyphenyl)piperazin-1-yl]-7-azaspiro[3.5]nonan-7-yl}-2-[(3R,8S)-2,5-dioxa-9,15,17-triazatetracyclo[8.7.0.0^{3,8}.0^{12,16}]heptadeca-1(10),11,13,16-tetraen-9-yl]-N-{3-nitro-4-[(oxan-4-ylmethyl)amino]benzenesulfonyl}benzamide] | 10.6 nM | –
COc1cc(CN2CCN(C3CC4(CCN(c5ccc(C(=O)NS(=O)(=O)c6cc7c(c([N+](=O)[O-])c6)N[C@H](C6CCOCC6)CO7)c(N6c7cc8cc[nH]c8nc7O[C@H]7COCC[C@@H]76)c5)CC4)C3)[C@H](c3ccccc3C)C2)cnc1N1CCOC[C@@H]1C [Example 187, 2-[(3R,8S)-2,5-dioxa-9,15,17-triazatetracyclo[8.7.0.0^{3,8}.0^{12,16}]heptadeca-1(10),11,13,16-tetraen-9-yl]-4-{2-[(2R)-4-({5-methoxy-6-[(3S)-3-methylmorpholin-4-yl]pyridin-3-yl}methyl)-2-(2-methylphenyl)piperazin-1-yl]-7-azaspiro[3.5]nonan-7-yl}-N-[(3R)-5-nitro-3-(oxan-4-yl)-3,4-dihydro-2H-1,4-benzoxazin-7-ylsulfonyl]benzamide] | 2.04 nM | –
COc1cc(CN2CCN(C3CC4(CCN(c5ccc(C(=O)NS(=O)(=O)c6cc7c(c([N+](=O)[O-])c6)N[C@H](C6CCOCC6)CO7)c(N6c7cc8cc[nH]c8nc7O[C@H]7COCC[C@@H]76)c5)CC4)C3)[C@H](c3ccccc3C)C2)cnc1N1CCOC[C@H]1C [Example 188, 2-[(3R,8S)-2,5-dioxa-9,15,17-triazatetracyclo[8.7.0.0^{3,8}.0^{12,16}]heptadeca-1(10),11,13,16-tetraen-9-yl]-4-{2-[(2R)-4-({5-methoxy-6-[(3R)-3-methylmorpholin-4-yl]pyridin-3-yl}methyl)-2-(2-methylphenyl)piperazin-1-yl]-7-azaspiro[3.5]nonan-7-yl}-N-[(3R)-5-nitro-3-(oxan-4-yl)-3,4-dihydro-2H-1,4-benzoxazin-7-ylsulfonyl]benzamide] | 11.1 nM | –
Cc1ccccc1[C@@H]1CN(Cc2cnc(N3CCOC[C@@H]3C)c(F)c2)CCN1C1CC2(CCN(c3ccc(C(=O)NS(=O)(=O)c4cc5c(c([N+](=O)[O-])c4)N[C@H](C4CCOCC4)CO5)c(N4c5cc6cc[nH]c6nc5O[C@H]5COCC[C@@H]54)c3)CC2)C1 [Example 189, 2-[(3R,8S)-2,5-dioxa-9,15,17-triazatetracyclo[8.7.0.0^{3,8}.0^{12,16}]heptadeca-1(10),11,13,16-tetraen-9-yl]-4-{2-[(2R)-4-({5-fluoro-6-[(3S)-3-methylmorpholin-4-yl]pyridin-3-yl}methyl)-2-(2-methylphenyl)piperazin-1-yl]-7-azaspiro[3.5]nonan-7-yl}-N-[(3R)-5-nitro-3-(oxan-4-yl)-3,4-dihydro-2H-1,4-benzoxazin-7-ylsulfonyl]benzamide] | 36.8 nM | –
Cc1ccccc1[C@@H]1CN(Cc2cnc(N3CCOC[C@@H]3C)c(OC(C)C)c2)CCN1C1CC2(CCN(c3ccc(C(=O)NS(=O)(=O)c4cc5c(c([N+](=O)[O-])c4)N[C@H](C4CCOCC4)CO5)c(N4c5cc6cc[nH]c6nc5O[C@H]5COCC[C@@H]54)c3)CC2)C1 [Example 190, 4-(2-((R)-4-((5-isopropoxy-6-((S)-3-methylmorpholino)pyridin-3-yl)methyl)-2-(o-tolyl)piperazin-1-yl)-7-azaspiro[3.5]nonan-7-yl)-N-(((R)-5-nitro-3-(tetrahydro-2H-pyran-4-yl)-3,4-dihydro-2H-benzo[b][1,4]oxazin-7-yl)sulfonyl)-2-((5aS,9aR)-6,7,9,9a-tetrahydro-1H-pyrano[3,4-b]pyrrolo[3′,2′:5,6]pyrido[3,2-e][1,4]oxazin-5(5aH)-yl)benzamide] | – | 11.1 nM
Cc1cc2c(CN3CCN(C4CC5(CCN(c6ccc(C(=O)NS(=O)(=O)c7cc8c(c([N+](=O)[O-])c7)N[C@H](C7CCOCC7)CO8)c(N7c8cc9cc[nH]c9nc8O[C@H]8COCC[C@@H]87)c6)CC5)C4)[C@H](c4ccccc4C)C3)cnc(N3CCOC[C@@H]3C)c2o1 [Example 191, 2-[(3R,8S)-2,5-dioxa-9,15,17-triazatetracyclo[8.7.0.0^{3,8}.0^{12,16}]heptadeca-1(10),11,13,16-tetraen-9-yl]-4-{2-[(2R)-4-({2-methyl-7-[(3S)-3-methylmorpholin-4-yl]furo[2,3-c]pyridin-4-yl}methyl)-2-(2-methylphenyl)piperazin-1-yl]-7-azaspiro[3.5]nonan-7-yl}-N-[(3R)-5-nitro-3-(oxan-4-yl)-3,4-dihydro-2H-1,4-benzoxazin-7-ylsulfonyl]benzamide] | 14.2 nM | –
Cc1ccccc1[C@@H]1CN(Cc2cnc(N3CCOCC3)c3c2C(C)(C)CCO3)CCN1C1CC2(CCN(c3ccc(C(=O)NS(=O)(=O)c4cc5c(c([N+](=O)[O-])c4)N[C@H](C4CCOCC4)CO5)c(N4c5cc6cc[nH]c6nc5O[C@H]5COCC[C@@H]54)c3)CC2)C1 [Example 192, 4-{2-[(2R)-4-{[4,4-dimethyl-8-(morpholin-4-yl)-2H,3H-pyrano[2,3-c]pyridin-5-yl]methyl}-2-(2-methylphenyl)piperazin-1-yl]-7-azaspiro[3.5]nonan-7-yl}-2-[(3R,8S)-2,5-dioxa-9,15,17-triazatetracyclo[8.7.0.0^{3,8}.0^{12,16}]heptadeca-1(10),11,13,16-tetraen-9-yl]-N-[(3R)-5-nitro-3-(oxan-4-yl)-3,4-dihydro-2H-1,4-benzoxazin-7-ylsulfonyl]benzamide] | 2.41 nM | –
COc1cc([C@H](C)N2CCN(C3CC4(CCN(c5ccc(C(=O)NS(=O)(=O)c6cc7c(c([N+](=O)[O-])c6)N[C@H](C6CCOCC6)CO7)c(N6c7cc8cc[nH]c8nc7O[C@H]7COCC[C@@H]76)c5)CC4)C3)[C@H](c3ccccc3C)C2)cnc1N1CCOC[C@@H]1C [Example 193, 4-(2-((R)-4-((S)-1-(5-methoxy-6-((S)-3-methylmorpholino)pyridin-3-yl)ethyl)-2-(o-tolyl)piperazin-1-yl)-7-azaspiro[3.5]nonan-7-yl)-N-(((R)-5-nitro-3-(tetrahydro-2H-pyran-4-yl)-3,4-dihydro-2H-benzo[b][1,4]oxazin-7-yl)sulfonyl)-2-((5aS,9aR)-6,7,9,9a-tetrahydro-1H-pyrano[3,4-b]pyrrolo[3′,2′:5,6]pyrido[3,2-e][1,4]oxazin-5(5aH)-yl)benzamide] | – | 73.3 nM
COc1cc([C@@H](C)N2CCN(C3CC4(CCN(c5ccc(C(=O)NS(=O)(=O)c6cc7c(c([N+](=O)[O-])c6)N[C@H](C6CCOCC6)CO7)c(N6c7cc8cc[nH]c8nc7O[C@H]7COCC[C@@H]76)c5)CC4)C3)[C@H](c3ccccc3C)C2)cnc1N1CCOC[C@@H]1C [Example 194, 4-(2-((R)-4-((R)-1-(5-methoxy-6-((S)-3-methylmorpholino)pyridin-3-yl)ethyl)-2-(o-tolyl)piperazin-1-yl)-7-azaspiro[3.5]nonan-7-yl)-N-(((R)-5-nitro-3-(tetrahydro-2H-pyran-4-yl)-3,4-dihydro-2H-benzo[b][1,4]oxazin-7-yl)sulfonyl)-2-((5aS,9aR)-6,7,9,9a-tetrahydro-1H-pyrano[3,4-b]pyrrolo[3′,2′:5,6]pyrido[3,2-e][1,4]oxazin-5(5aH)-yl)benzamide] | – | 2.53 nM
Cc1ccccc1[C@@H]1CN([C@@H]2CCOc3c2ccc(F)c3F)CCN1C1CC2(CCN(c3ccc(C(=O)NS(=O)(=O)c4cc5c(c([N+](=O)[O-])c4)N[C@H](C4CCOCC4)CO5)c(N4c5cc6cc[nH]c6nc5O[C@H]5COCC[C@@H]54)c3)CC2)C1 [Example 195, 4-{2-[(2R)-4-[(4R)-7,8-difluoro-3,4-dihydro-2H-1-benzopyran-4-yl]-2-(2-methylphenyl)piperazin-1-yl]-7-azaspiro[3.5]nonan-7-yl}-2-[(3R,8S)-2,5-dioxa-9,15,17-triazatetracyclo[8.7.0.0^{3,8}.0^{12,16}]heptadeca-1(10),11,13,16-tetraen-9-yl]-N-[(3R)-5-nitro-3-(oxan-4-yl)-3,4-dihydro-2H-1,4-benzoxazin-7-ylsulfonyl]benzamide] | 94.5 nM | –
Cc1ccccc1[C@@H]1CN([C@H]2CCOc3c2ccc(F)c3F)CCN1C1CC2(CCN(c3ccc(C(=O)NS(=O)(=O)c4cc5c(c([N+](=O)[O-])c4)N[C@H](C4CCOCC4)CO5)c(N4c5cc6cc[nH]c6nc5O[C@H]5COCC[C@@H]54)c3)CC2)C1 [Example 196, 4-{2-[(2R)-4-[(4S)-7,8-difluoro-3,4-dihydro-2H-1-benzopyran-4-yl]-2-(2-methylphenyl)piperazin-1-yl]-7-azaspiro[3.5]nonan-7-yl}-2-[(3R,8S)-2,5-dioxa-9,15,17-triazatetracyclo[8.7.0.0^{3,8}.0^{12,16}]heptadeca-1(10),11,13,16-tetraen-9-yl]-N-[(3R)-5-nitro-3-(oxan-4-yl)-3,4-dihydro-2H-1,4-benzoxazin-7-ylsulfonyl]benzamide] | 92.3 nM | –
